≈ marks a conversion by molar mass, not a printed value.
Key:
Test in all cases: microbe, parasite or virus in culture
[1] = test system: C. albicans SC 5314; details: Candida albicans, SC5314
[2] = test system: C. albicans Δopt1Δopt5Δptr2Δptr22; details: Candida albicans
[3] = test system: C. albicans Gu4; details: Candida albicans
[4] = test system: C. albicans Gu5; details: Candida albicans
[5] = test system: C. glabrata DSM 11226; details: Nakaseomyces glabratus, DSM11226
[6] = test system: C. krusei DSM 6128; details: Pichia kudriavzevii, DSM6128

For OC(Cn1cncn1)(Cn1cncn1)c1ccc(F)cc1F [FLU, Fluconazole], the MIC50 [1] was 50 µM (≈ 15.3 µg/mL), the MIC90 [1] was 100 µM (≈ 30.6 µg/mL) and the MIC50 [2] was 50 µM (≈ 15.3 µg/mL). For the same compound, the MIC90 [2] was 100 µM (≈ 30.6 µg/mL), the MIC50 [3] was 50 µM (≈ 15.3 µg/mL) and the MIC50 [4] was > 200 µM. It also gave an MIC50 [5] of 100 µM (≈ 30.6 µg/mL) and an MIC50 [6] of 50 µM (≈ 15.3 µg/mL).
